Patent US20230110676A1, “Method of Treating Diseases” (priority 2020, published 2023)

Key:
N2 C. elegans = assay: Life-extension effect on worm under regular culture conditions; assay type: in vivo
Source text: In this example, the biological functions of ergothioneine were investigated using C. elegans as the model system. Using C. elegans as the model has several prominent advantages, including short life cycle, simple experimental manipulation, and rich collection of publicly available genetic mutants (e.g., Caenorhabditis Genetics Center). In addition, its genome comprises ⅔ of human disease-related genes.
(§1) To test the biological effect of ergothioneine, the first set of experiments was to test the toxicity level of ergothioneine on the worm model. In humans, ergothioneine is enriched up to 2 mM concentration in many parts of the body. […] At 150 μM, the lifespan of the wild type worm can be extended by 30-40% (FIG. 2A). Over the last two decades, there is numerous evidence supporting the life-extension effect by caloric restriction from various model systems (yeast, worm, fly, and mouse). Thus, the effect of ergothioneine on worm Eat-2 mutant was also examined.

worm Eat-2 mutant = assay: Life-extension effect on caloric-restriction worm mutant; assay type: in vivo, C. elegans; conditions: Eat-2 mutant (partial starvation)
Experimental: as §1

N2 worms = assay: Protective effect under paraquat-induced oxidative stress; assay type: in vivo, C. elegans; conditions: N2 worms treated with paraquat
Experimental: Encouraged by the clear life-extension effect on worm model under regular culture conditions in the above example, the protective effect of ergothioneine under stresses was examined. In the first experiment, the worm was treated with paraquat to induce oxidative stress. Under the paraquat-induced oxidative stress conditions, N2 worms' life span was decreased by nearly 50% (FIG. 2C vs. FIG. 2A).

N2 worm = assay: Protective effect under heat shock conditions; assay type: in vivo, C. elegans; conditions: N2 worm moved from 20° C. to 42° C.; a few hundred micromolar; 3 hours without
Experimental: Besides the oxidative stress, the protective effect of ergothioneine for the worm under heat shock conditions was also examined. After the worms were cultured multiple days, they were then moved from 20° C. to 42° C. Under such a heat-shock condition, 50% of the worm died within 3 hours. However, in the presence of a few hundred micromolar concentration of ergothioneine, it extends N2 worm's average survival time from 3 hours to nearly 8-9 hours (FIG. 2D).

daf-16 mutant worm = assay: Life-extension effect on daf-16 mutant worm; assay type: in vivo, C. elegans
Source text: To address this issue, the large collection of C. elegans mutants in Caenorhabditis Genetics Center was again utilized in this example. Among the mutants examined, the daf-16 mutant results stood out (FIGS. 3A, 3B, and 3C). […] Among genes of the IIS pathway, daf-2 encodes an insulin-like receptor, and it is the starting point of the pathway that eventually leads to daf-16. Daf-16 is the hub, where information from several different pathways merge and then use to regulate many physiological processes. Worm daf-16 mutant has an average life-span that is […] the N2 worm (FIGS. 3A, 3B, and 3C).

[1] = tested on: MPTP Parkinson's disease mouse model; assay: MPTP Parkinson's disease mouse model, latency test on rotatory plate/rod; assay type: in vivo; conditions: mice, 20 mg/Kg MPTP for seven days; ergothioneine 10, 20 mg/kg co-injection or 40 mg/kg in water, 7 days
Experimental: (§2) Parkinson mouse model was induced by 1-methyl-4-phenyl-1,2,3,6-tetrahydropyridine (MPTP), which induced toxicity to dopaminergic neurons (latency test). Behavior test was done by testing mouse behavior: how long can they hold on rotatory plate/rod. The longer they stay, the better their health conditions. After MPTP treatment, mice are clearly much weaker. […] Significance of difference was determined by unpaired two-tailed t-test. #P<0.05 compared with control, *P<0.05, **P<0.01, ****P<0.0001 compared with MPPP-treated control. 1) Latency test results of control group with no MPTP or ergothioneine; 2) Latency test results of mice treated with 20 mg/Kg of MPTP for seven days; 3) Latency test results of mice treated with 20 mg/Kg of MPTP and 10 mg/kg of ergothioneine (co-injection) for seven days; 4) Latency test results of mice treated with 20 mg/Kg of MPTP and 20 mg/kg of ergothioneine (co-injection) for seven days; 5) Latency test results of mice treated with 20 mg/Kg of MPTP and 40 mg/kg of ergothioneine in water for seven days.

[2] = tested on: MPTP Parkinson's disease mouse model; assay: MPTP Parkinson's disease mouse model, pole test; assay type: in vivo; conditions: mice, 20 mg/Kg MPTP for seven days; ergothioneine 10, 20 mg/kg co-injection or 40 mg/kg in water, 7 days
Experimental: as §2, with “by MPTP.” for “by 1-methyl-4-phenyl-1,2,3,6-tetrahydropyridine (MPTP), which induced toxicity to dopaminergic neurons (latency test).”, “long does it take for the mice to climb to the top of a rod. The shorter time” for “long can”, “they took,” for “they hold on rotatory plate/rod. The longer they stay,”, “health conditions are.” for “health conditions.”, “t-test. ###P<0.05” for “t-test. #P<0.05”, “control, ***P<0.001,” for “control, *P<0.05, **P<0.01,”

worm = assay: Protective effect on MPP+ detrimental effect, worm survival rate; assay type: in vivo; conditions: 0.75 mM of MPTP plus 400 μM ergothioneine; ~50% without ergothioneine
Experimental: However, ergothioneine can offer significant protection. The last column is the worm with no ergothioneine or MPTP treatment. The first column is the worm survival rate after treating with 0.75 mM of MPTP.

[3] = tested on: a-Synuclein Overexpression Worm Model; assay: Heat shock experiment in α-synuclein overexpression worm Parkinson's disease model; assay type: in vivo; conditions: 1.6 mM, 3 hours without
Experimental: FIGS. 13A and B show Protective Effect for Heat-shock for Both Wild-type and a-Synuclein Overexpression Worm Model (Parkinson's disease). Heat shock experiment. α-synuclein was expressed to create worm parkinson's disease model on worm. […] With 1.6 mM of ergothioneine, 50% survival time increased to 8 hours.

mouse = assay: Open field experiment, physical activities of disease group at week #57; assay type: in vivo; conditions: mice, week #57, treated vs control disease group
Source text: FIGS. 5A and 5B show the physical activities of untreated disease group and treated disease group at week #57 (open field experiment). A) Real time trace of mouse movement. […] B) Quantitative measurement of the distance each mouse moved during the testing period and the time they spent in the open area.

C[N+](C)(C)[C@@H](Cc1c[nH]c(=S)[nH]1)C(=O)[O-] [ergothioneine]
life-extension effect (N2 C. elegans; N2 C. elegans, concentrations as low as 50 μM): robust life-extension effect
lifespan extension (N2 C. elegans; wild type worm, 150 μM): 30-40%
life extension of Eat-2 worm mutant (worm Eat-2 mutant): can further extend the life
protective effect under oxidative stress (N2 worms): clearly offers protective effects
average survival time under heat shock (N2 worm): 8 to 9 h
life-extension effect on daf-16 mutant (daf-16 mutant worm): the life-extension effect was abolished
latency test (time held on rotatory plate/rod) [1]: mice are clearly protected from these detrimental effects
pole test (time to climb to the top of a rod) [2]: mice are clearly protected from these detrimental effects
worm survival rate (worm): ~90%
50% survival time under heat shock [3]: 8 h
physical activities in open field (mouse): demonstrated much more activities
